What was measured:
Assay in all cases: relative viability (nuclei count vs DMSO), 5 days (fraction); higher = more cells survive
Masitinib + OSI-027 = compound: Cc1ccc(NC(=O)c2ccc(CN3CCN(C)CC3)cc2)cc1Nc1nc(-c2cccnc2)cs1 [Masitinib] + COc1cccc2cc(-c3nc([C@H]4CC[C@H](C(=O)O)CC4)n4ncnc(N)c34)[nH]c12 [OSI-027] (partner 0.5 µM)
Method in brief: (§1)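 Lung cancer cell lines were seeded in 1536-well plates and dosed by pin tool the next day, with either a single drug or a fixed anchor-drug dose combined with five library-drug doses (not always all listed) spaced in √10 steps. Five days later, one step fixed the cells and stained their nuclei (final 0.05% Triton X-100, 1% formaldehyde, 1 ug/ml Hoechst), and nuclei were counted on 4× images. Relative viability is the nuclei count in treated wells divided by the count in vehicle wells, and each value is the median of duplicate plates.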

Masitinib + Vorinostat = compound: Cc1ccc(NC(=O)c2ccc(CN3CCN(C)CC3)cc2)cc1Nc1nc(-c2cccnc2)cs1 [Masitinib] + O=C(CCCCCCC(=O)Nc1ccccc1)NO [Vorinostat] (partner 1 µM)
Method in brief: as §1

Masitinib + Alpelisib = compound: Cc1ccc(NC(=O)c2ccc(CN3CCN(C)CC3)cc2)cc1Nc1nc(-c2cccnc2)cs1 [Masitinib] + Cc1nc(NC(=O)N2CCC[C@H]2C(N)=O)sc1-c1ccnc(C(C)(C)C(F)(F)F)c1 [Alpelisib] (partner 2 µM)
Method in brief: as §1

Masitinib + Linsitinib = compound: Cc1ccc(NC(=O)c2ccc(CN3CCN(C)CC3)cc2)cc1Nc1nc(-c2cccnc2)cs1 [Masitinib] + C[C@]1(O)C[C@@H](c2nc(-c3ccc4ccc(-c5ccccc5)nc4c3)c3c(N)nccn32)C1 [Linsitinib] (partner 1 µM)
Method in brief: as §1

Cell Line	relative viability (Masitinib + OSI-027; first compound 0.01 µM)	relative viability (Masitinib + OSI-027; first compound 0.1 µM)	relative viability (Masitinib + OSI-027; first compound 0.3162 µM)	relative viability (Masitinib + OSI-027; first compound 1 µM)	relative viability (Masitinib + Vorinostat; first compound 0.01 µM)	relative viability (Masitinib + Vorinostat; first compound 0.03162 µM)	relative viability (Masitinib + Vorinostat; first compound 0.1 µM)	relative viability (Masitinib + Vorinostat; first compound 0.3162 µM)	relative viability (Masitinib + Vorinostat; first compound 1 µM)	relative viability (Masitinib + Alpelisib; first compound 0.01 µM)	relative viability (Masitinib + Alpelisib; first compound 0.03162 µM)	relative viability (Masitinib + Alpelisib; first compound 0.1 µM)	relative viability (Masitinib + Alpelisib; first compound 0.3162 µM)	relative viability (Masitinib + Alpelisib; first compound 1 µM)	relative viability (Masitinib + Linsitinib; first compound 0.01 µM)	relative viability (Masitinib + Linsitinib; first compound 0.03162 µM)	relative viability (Masitinib + Linsitinib; first compound 0.1 µM)	relative viability (Masitinib + Linsitinib; first compound 0.3162 µM)	relative viability (Masitinib + Linsitinib; first compound 1 µM)	relative viability (Masitinib + OSI-027; first compound 0.03162 µM)
BEN	0.306	0.325	0.26	0.436	0.616	0.533	0.557	0.528	0.557	1.21	0.901	1.3	1.34	0.945	1.04	0.858	1.19	1.23	0.939	
EMC-BAC-2	0.379	0.379	0.379	0.354	0.38		0.441	0.445	0.335	0.701	0.714	0.841	0.767	0.783	0.757	0.796	0.867	0.903	0.814	0.381
LXF-289	0.747	0.794	0.861	0.767	0.646	0.818	0.65	0.854	0.743	0.886	1.01	1.03	1	1.02	0.804	0.999	0.901	0.981	0.944	0.963
ABC-1	0.432	0.516	0.334	0.38	1.05	0.997	1.44	1.15	0.877	1.26	1.04	1.01	0.813	1.01	0.78	0.78	0.982	0.871	0.622	0.52
NCI-H358	0.85	0.859	0.665	0.731	0.72	0.658	0.773	0.641	0.616	0.734	0.802	0.813	0.788	0.852	0.86	0.877	0.715	0.809	0.623	0.762
NCI-H1355	0.345	0.42	0.345	0.37	0.631	0.518	0.633	0.464	0.577	0.857	0.707	0.938	0.668	0.731	0.808	0.697	0.884	0.743	0.801	0.359
EBC-1										0.835	0.713	1.01	0.715	0.822	0.685	0.753	1.21	0.857	0.588	
NCI-H2405	0.62	0.633	0.609	0.659	0.791	0.937	0.858	0.938	0.909	0.838	0.945	0.896	0.737	0.802	0.96	1.01	0.945	0.882	0.9	0.63
NCI-H2009	0.591	0.646	0.616	0.606	0.664	0.772	0.69	0.654	0.602	1.15	1.12	1.24	1.16	1.18	1.2	1.22	1.24	1.23	1.17	0.654
NCI-H441	0.654	0.798	0.717	0.429	0.856	0.75	1.12	1.01	0.894	0.675	0.822	0.873	0.703	0.653	0.563	0.532	0.501	0.534	0.497	0.628
NCI-H1563	0.741	0.781	0.738	0.705						1.02	0.964	0.839	1.13	0.931	1.17	1.09	1.19	1.26	1.17	0.717
NCI-H2342	0.637	0.696	0.592	0.593	0.789	0.671	0.829	0.856	0.83											0.58
ChaGo-K-1	0.779	0.603	0.695	0.538	0.901	0.711	0.853	0.775	0.732											0.537
NCI-H2170	0.701	0.791	0.606	0.726	0.781	0.708	0.908	0.869	0.823	0.912	0.688	0.902	0.784	0.801						0.75
A549										0.773	0.712	1.01	0.938	0.683	0.576	0.602	0.667	0.681	0.545	
NCI-H1650	0.58	0.719	0.499	0.543	0.492	0.402	0.549	0.437	0.512											0.478
NCI-H1299										1.1	1.1	1.27	1.11	1.05	0.778	1.02	1.06	1.09	0.879	
SW 900	0.654	0.627	0.527	0.482	0.48	0.502	0.375	0.259	0.505											0.443
NCI-H1792	0.762	0.71	0.563	0.9						0.69	0.203	0.61	0.65	0.698	0.504	0.224	0.533	0.454	0.529	0.402
IA-LM					0.737	0.747	1.06	1.19	0.957	0.823	0.758	1.07	0.762	0.787	0.365	0.541	0.557	0.504	0.451	
NCI-H1648	0.272	0.236	0.268	0.254	0.471	0.401	0.454		0.555											

From the supplement of paper PMC10307832
